The conditions of experiment [1]: combination with interleukin-2; Samlowski et al., Nature Medicine (2003); cited from earlier work.
The next experiment concerns CT26 mouse colon tumor. Briefly: Mouse colon tumor model, first experiment (CT26 fragments implanted in BALB/c mice). The class given is in vivo. The following applies: SOD mimetic 6 mg/kg IP twice daily from day 6, combined with gemcitabine 80 mg/kg IP on days 6, 9, 12, 15; compared with gemcitabine alone. As to the method: A. In a first experiment, fragments of CT26 mouse colon tumor were implanted in female BALB/c mice and allowed to grow for 6 days to a size of about 110 mg (107-115 mg).
On this day, day 6, mice were administered 6 mg/kg of KM4403 or KM4419 intraperitoneally (IP) and dosing was continued twice daily for the duration of the study.
In some groups, gemcitabine was administered on days 6, 9, 12 and 15 at a dosage of 80 mg/kg, also via IP, 10 minutes after the administration of KM4403 or KM4419.

A short description of experiment [2]: Activity of superoxide dismutase mimetic toward hydrogen peroxide (selectivity). The class given is biochemical.
Experiment [3] concerns human A549 non-small lung carcinoma cells. Briefly: Non-small cell lung cancer tumor model (A549 cells implanted into flanks of BALB/c mice). The class given is in vivo. Conditions: KM4419 30 mg/kg IP on days 9-23, combined with paclitaxel 12.5 mg/kg IP on days 9 and 13; compared with either drug alone; FIG. 2. As to the method:
In a manner similar to that of Example 1, human A549 non-small lung carcinoma cells were implanted into the flanks of female BALB/c mice, and the tumors were allowed to grow until day 9. Group 1 was administered only vehicle. Group 2 (n=10) was administered only paclitaxel at 12.5 mg/kg IP on days 9 and 13. In group 3 (n=10), the mice were administered 30 mg/kg of KM4419 IP on days 9-23. In group 4 (n=10), a combination of these protocols was administered.

Another experiment concerns C26 colon tumor. Briefly: Mouse colon tumor model, second experiment (C26 fragments implanted in BALB/c mice). Type of experiment: in vivo. The following applies: KM4419 10 mg/kg or 20 mg/kg twice daily from day 7, combined with gemcitabine 120 mg/kg IP on days 7, 13, 16, both KM4419 dosage levels, FIG. 1. As to the method:
B. In a second experiment, fragments of C26 colon tumor were implanted in female BALB/c mice and grown until day 7 at which point they averaged 123 mg.
Groups 1 and 2 (n=8) were given 10 mg/kg or 20 mg/kg of KM4419 twice daily starting at day 7.
In groups 3 and 4 (n=8), gemcitabine was administered at 120 mg/kg or 160 mg/kg IP on days 7, 13 and 16.
In groups 5 and 6 (n=8), both gemcitabine and KM4419 were administered according to the foregoing regimens. Gemcitabine was administered 10 minutes after KM4419 in these groups. The levels of KM4419 were 10 mg/kg and 20 mg/kg, respectively, and the dose of gemcitabine was 120 mg/kg.

We go through five compounds from patent US9198893B2, “Combination antitumor therapy” (GALERA LABS, LLC, priority 2008, dated 2015).

Consider `[Cl][Mn-5]1234([Cl])[n+]5c6cccc5C[NH+]1[C@@H]1CCCC[C@H]1[NH+]2CC[NH+]3[C@@H]1CCCC[C@H]1[NH+]4C6` (stereo partly drawn) [KM4403], for which the “antitumor effect of IL-2 in combination treatment” value in experiment [1] is recorded as “potentiates the antitumor effect of IL-2”. For the same compound, the tumor size entry in the experiment with CT26 mouse colon tumor is reported as “decreased tumor size”.

In the case of mangafodipir, the “activity toward hydrogen peroxide” value in experiment [2] is “significant activity”.

“manganese [III] tetrakis-(5,10,15,20)-benzoic acid porphyrin [MnTBAP]”: in experiment [2], the “activity toward hydrogen peroxide” value is “significant activity”.

For `CC(C)c1cc(C(=O)O)c([O-])c(C(C)C)c1.CC(C)c1cc(C(=O)O)c([O-])c(C(C)C)c1.[Cu+2]` [CuDIPS, copper [II] diisopropylsalicylate], the “activity toward hydrogen peroxide” value in experiment [2] is reported as “significant activity”.

On to `[Cl][Mn-5]1234([Cl])[n+]5c6cccc5C[NH+]1[C@H]1CCCC[C@@H]1[NH+]2CC[NH+]3[C@H]1CCCC[C@@H]1[NH+]4C6` (stereo partly drawn) [KM4419], for which the “effectiveness on tumor growth” value in experiment [3] is reported as “more effective than either drug taken alone”. Further, the tumor recurrence result in the experiment on C26 colon tumor is “delayed recurrence”. The tumor size entry in the experiment on C26 colon tumor (compared with gemcitabine alone) is on record as “decreased the tumor size more effectively than gemcitabine alone”; in the experiment on CT26 mouse colon tumor, “decreased tumor size”.
